In ChEMBL document CHEMBL2331130, “Synthesis and antibacterial activity of 9-oxime ether non-ketolides, and novel binding mode of alkylides with bacterial rRNA” (2013) one finds MIC and Ratio data, which are given here for three compounds.

What all share (assay type): functional
Assay [1] relates to Streptococcus pyogenes. In words: Antibacterial activity against erythromycin-susceptible Streptococcus pyogenes A3 by broth microdilution method. For orientation: Dilution methods test growth across graded concentrations, often in twofold steps.
Assay [2] has as its system Streptococcus pyogenes. In words: Ratio of telithromycin MIC to compound MIC for MLS-resistant (constitutive) Streptococcus pyogenes A2 by broth microdilution method.
Assay [3] concerns Staphylococcus aureus. In words: Ratio of telithromycin MIC to compound MIC for methicillin-resistant, […], MLS-resistant (constitutive) Staphylococcus aureus PU 19 by broth microdilution method.
The test system of assay [4] is Staphylococcus epidermidis. Put plainly: Ratio of telithromycin MIC to compound MIC for methicillin-resistant, coagulase-negative, MLS-resistant (inducible) Staphylococcus epidermidis E3 by broth microdilution method.
The subject of assay [5] is Streptococcus dysgalactiae. Put plainly: Ratio of telithromycin MIC to compound MIC for erythromycin-resistant Streptococcus dysgalactiae A1 by broth microdilution method.
Assay [6] relates to Streptococcus pneumoniae. In words: Antibacterial activity against MLS-resistant (constitutive), penicillin-resistant Streptococcus pneumoniae PU11 by broth microdilution method.
Assay [7] relates to Staphylococcus aureus. Put plainly: Antibacterial activity against methicillin-resistant, […], MLS-resistant (constitutive) Staphylococcus aureus PU 19 by broth microdilution method.
Assay [8] relates to Staphylococcus aureus. Put plainly: Antibacterial activity against methicillin-resistant, MLS-resistant (inducible) Staphylococcus aureus PU 32 by broth microdilution method.
The subject of assay [9] is Streptococcus pneumoniae. Put plainly: Antibacterial activity against penicillin-susceptible Streptococcus pneumoniae PU09 harboring mef gene by broth microdilution method.
Assay [10] deals with Staphylococcus epidermidis. In words: Antibacterial activity against methicillin-susceptible, MLS-resistant (inducible) Staphylococcus epidermidis E1 by broth microdilution method.
Assay [11] relates to Streptococcus pyogenes. In words: Antibacterial activity against MLS-resistant (constitutive) Streptococcus pyogenes A2 by broth microdilution method.
The subject of assay [12] is Staphylococcus epidermidis. Put plainly: Antibacterial activity against methicillin-resistant, MLS-resistant (constitutive) Staphylococcus epidermidis E2 by broth microdilution method.
In assay [13] the test system is Streptococcus pneumoniae. Put plainly: Antibacterial activity against erythromycin-susceptible Streptococcus pneumoniae ATCC 49619 by broth microdilution method.
The subject of assay [14] is Staphylococcus aureus. Put plainly: Antibacterial activity against erythromycin-susceptible Staphylococcus aureus ATCC 29213 by broth microdilution method.
The test system of assay [15] is Streptococcus dysgalactiae. In words: Antibacterial activity against erythromycin-resistant Streptococcus dysgalactiae A1 by broth microdilution method.
Assay [16] has as its system Staphylococcus epidermidis. Put plainly: Antibacterial activity against methicillin-resistant, coagulase-negative, MLS-resistant (inducible) Staphylococcus epidermidis E3 by broth microdilution method.
Assay [17] deals with Streptococcus pneumoniae. In words: Antibacterial activity against MLS-resistant (constitutive), penicillin-susceptible Streptococcus pneumoniae PU27 by broth microdilution method.
In assay [18] the test system is Staphylococcus aureus. Put plainly: Antibacterial activity against methicillin-resistant, MLS-resistant (constitutive) Staphylococcus aureus PU 20 by broth microdilution method.
Assay [19] has as its system Staphylococcus aureus. In words: Antibacterial activity against methicillin-susceptible, MLS-resistant (inducible) Staphylococcus aureus PU 64 by broth microdilution method.

The structures appear in SMILES notation. In brackets after ≈: the same amount, converted by molar mass.

By MIC is commonly meant the lowest concentration found to suppress growth. Regarding `CC[C@H]1OC(=O)[C@H](C)C(=O)[C@H](C)[C@@H](O[C@@H]2O[C@H](C)C[C@H](N(C)C)[C@H]2O)[C@](C)(OC)C[C@@H](C)/C(=N\OC/C=C/c2cnc3ccccc3c2)[C@H](C)[C@H]2OC(=O)O[C@@]21C`, the MIC in assay [1] was 0.032 µg/mL (≈ 0.0402 µM); in assay [6], 64 µg/mL (≈ 80.4 µM); in assay [7], 64 µg/mL (≈ 80.4 µM); in assay [8] it was 1 µg/mL (≈ 1.26 µM); in assay [9], 1 µg/mL (≈ 1.26 µM); in assay [10], 8 µg/mL (≈ 10.1 µM). The minimal inhibitory concentration (MIC) in assay [11] amounted to 32 µg/mL (≈ 40.2 µM); in [12] it was 128 µg/mL (≈ 161 µM); in assay [13], 0.125 µg/mL (≈ 0.157 µM); in assay [14] it was 0.5 µg/mL (≈ 0.628 µM); in assay [15], 0.5 µg/mL (≈ 0.628 µM); in assay [16], 2 µg/mL (≈ 2.51 µM). Further, the Ratio in assay [2], in assay [3], in [4] and in assay [5] was 4 each time.

Regarding `CC[C@H]1OC(=O)[C@H](C)[C@@H](O[C@H]2C[C@@](C)(OC)[C@@H](O)[C@H](C)O2)[C@H](C)[C@@H](O[C@@H]2O[C@H](C)C[C@H](N(C)C)[C@H]2O)[C@](C)(OC)C[C@@H](C)C(=O)[C@H](C)[C@@H](O)[C@]1(C)O` [CLARITHROMYCIN], the MIC in [1] is at most 0.008 µg/mL; in assay [17] it was over 256 µg/mL; in [6], over 256 µg/mL; in assay [7] it was over 256 µg/mL; in assay [8] it was over 256 µg/mL; in assay [9], over 256 µg/mL. For the same compound, the MIC is over 256 µg/mL in assay [10]; over 256 µg/mL in assay [18]; over 256 µg/mL in [11]; over 256 µg/mL in [19]; over 256 µg/mL in [12]; 0.032 µg/mL (≈ 0.0428 µM) in assay [13]. Further, the minimum inhibitory concentration (MIC) was 0.5 µg/mL (≈ 0.668 µM) in assay [14], 16 µg/mL (≈ 21.4 µM) in assay [15] and over 256 µg/mL in [16].

With `CC[C@H]1OC(=O)[C@H](C)C(=O)[C@H](C)[C@@H](O[C@@H]2O[C@H](C)C[C@H](N(C)C)[C@H]2O)[C@](C)(OC)C[C@@H](C)C(=O)[C@H](C)[C@H]2N(CCCCn3cnc(-c4cccnc4)c3)C(=O)O[C@]12C` [TELITHROMYCIN], the MIC in [1] was at most 0.008 µg/mL; in assay [17], 0.125 µg/mL (≈ 0.154 µM); in assay [6] it was 4 µg/mL (≈ 4.93 µM); in assay [7], over 256 µg/mL; in assay [8], 1 µg/mL (≈ 1.23 µM); in assay [9], 0.125 µg/mL (≈ 0.154 µM). Also, the minimal inhibitory concentration (MIC) was 1 µg/mL (≈ 1.23 µM) in [10]; over 256 µg/mL in assay [18]; 128 µg/mL (≈ 158 µM) in assay [11]; 0.5 µg/mL (≈ 0.616 µM) in assay [19]; over 256 µg/mL in assay [12]; at most 0.008 µg/mL in assay [13]. The minimum inhibitory concentration (MIC) in [14] came out at 0.25 µg/mL (≈ 0.308 µM); in assay [15] it was 2 µg/mL (≈ 2.46 µM); in [16], 8 µg/mL (≈ 9.85 µM).
